In one assay the target is T1, LTB4 receptor (Cavia porcellus, UniProt H0VYV8).
T1 construct: 1.0 mg/mL of the Guinea pig spleen membrane preparation; from tissue; host or cells: guinea pig spleen membranes
Put plainly: Inhibition of [3H]LTB4 binding, guinea pig spleen membrane assay. The conditions noted are these: 10 μM test compound; for inhibition at 10 µM: 1 nM [3H]LTB4, read-out: LTB4 % inhib @ 10 μm; for LTB4 % inhib @ 10 μm: 1 nM [3H]LTB4. Here is the method:
The ability of 1-(3-hydroxy-4-methoxyphenyl)-4-methyl-5-ethyl-7,8-dimethoxy-5H-2,3-benzodiazepine to inhibit [^3H]LTB4 binding to the LTB4 receptor was determined as follows using the guinea pig spleen membrane assay of Cheng et al., J. Pharmacol. Exp. Ther., 236(1), 126-132, 1986, the entire disclosure of which is incorporated herein by reference.
Reactions were carried out in a phosphate buffer (pH 7.4) containing NaCl, MgCl2, EDTA, and bacitracin. The reaction volume of 150 μL containing 1.0 mg/mL of the Guinea pig spleen membrane preparation and 1 nM [^3H]LTB4, with or without a candidate inhibitor, was incubated at 0-4° C. for 2 hours. Candidate inhibitors included the compounds listed in Table 1 and unlabeled LTB4 as a control. The reaction was terminated by rapid vacuum filtration onto glass fiber filters. The filter was washed with cold buffer, dried and placed in a scintillation vial. Radioactivity trapped onto the filters was determined and compared to control values in order to ascertain any interactions of the test compound with the LTB4 binding site.

For assay [1], the target named is T2, TXA2 receptor (Homo sapiens, UniProt P21731).
T2 construct: from tissue; host or cells: human platelets
T2 sequence (P21731 1-343): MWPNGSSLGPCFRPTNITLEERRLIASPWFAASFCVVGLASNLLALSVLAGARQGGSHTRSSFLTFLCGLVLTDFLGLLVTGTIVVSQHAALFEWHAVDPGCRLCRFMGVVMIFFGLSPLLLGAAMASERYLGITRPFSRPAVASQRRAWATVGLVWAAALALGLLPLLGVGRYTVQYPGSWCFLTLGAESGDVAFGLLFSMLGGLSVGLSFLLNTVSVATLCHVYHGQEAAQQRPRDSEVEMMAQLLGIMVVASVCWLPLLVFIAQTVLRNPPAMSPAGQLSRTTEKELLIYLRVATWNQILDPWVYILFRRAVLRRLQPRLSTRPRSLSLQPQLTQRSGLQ
Nature of the assay: TXA2 binding assay ([3H]SQ 29,548), human platelet-based. The conditions noted are these: human platelets. As to the method:
The ability of 1-(3-hydroxy-4-methoxyphenyl)-4-methyl-5-ethyl-7,8-dimethoxy-5H-2,3-benzodiazepine to inhibit the binding of [^3H]SQ 29,548 (30-60 Ci/mmol) was determined via the human platelet-based assay of Hedberg et al., “Characterization of [^3H]SQ 29,548 as a High Affinity Radioligand Binding to Thromboxane A2—Receptors in Human Platelets.”, J. Pharmacol. Exp. Ther. 245: 786-792 (1988), with modifications. TXA2 is a very unstable molecule, thus a surrogate ligand of known affinity for the TXA2 receptor is required as a standard for determination of binding affinity of new potential TXA2 ligands. [^3H]SQ 29,548 is a ligand with known binding affinity for the TXA2 receptor. [^3H]SQ 29,548 has been employed as a TXA2 ligand in several published studies, is accepted as a TXA2 binding standard, and is thus useful as a standard in assessing the binding affinity of new compounds to the TXA2 receptor. […]
Reactions were carried out in a reaction mixture comprising 25 mM TRIS-HCl (pH 7.4) containing 138 mM NaCl, 5 mM KCl, 5 mM MgCl2, 5.5 mM dextrose, and 2 mM EDTA at 25° C. for 60 minutes. […] Radioactivity trapped onto the filters was determined and compared to control values in order to ascertain any interactions of test compound with the thromboxane A2 binding site.

For assay [2], the system named is DSS-induced colitis in mice. Put plainly: Dextran sulfate sodium induced colitis: mouse model of inflammatory bowel disease. The format is in vivo. The note with it: for % of normal length: colon length; for Mean DAIWT ± SEM: DAI without weight loss parameter; for Mean DAI ± SEM: mice.
Another assay relates to aggression in mice. The conditions noted are these: cited from earlier work.
Another assay deals with muricide in rats. The note with it: cited from earlier work.
The subject of assay [3] is anti-noradrenergic effects. The note with it: cited from earlier work.
The test system of another assay is narcosis in mice. The note with it: cited from earlier work.
A further assay deals with central BZ receptors. The conditions noted are these: cited from earlier work.
A further assay concerns the target peripheral BZ receptors (Homo sapiens, UniProt P30536). The conditions noted are these: cited from earlier work.
Assay [4] has as its target T2, TXA2 receptor. The conditions noted are these: reference competitor in [3H]SQ 29,548 assay; cited from earlier work.

T1 sequence (H0VYV8 1-348): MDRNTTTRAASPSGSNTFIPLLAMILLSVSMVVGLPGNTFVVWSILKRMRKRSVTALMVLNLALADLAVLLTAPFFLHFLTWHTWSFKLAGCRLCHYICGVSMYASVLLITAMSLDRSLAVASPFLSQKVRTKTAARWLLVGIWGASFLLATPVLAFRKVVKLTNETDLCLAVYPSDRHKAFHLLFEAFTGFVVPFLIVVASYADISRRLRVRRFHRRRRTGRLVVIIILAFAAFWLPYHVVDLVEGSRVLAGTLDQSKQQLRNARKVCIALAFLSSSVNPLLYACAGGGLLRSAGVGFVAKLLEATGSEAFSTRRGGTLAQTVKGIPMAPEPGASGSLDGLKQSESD
Chain of peripheral BZ receptors (P30536 whole entry): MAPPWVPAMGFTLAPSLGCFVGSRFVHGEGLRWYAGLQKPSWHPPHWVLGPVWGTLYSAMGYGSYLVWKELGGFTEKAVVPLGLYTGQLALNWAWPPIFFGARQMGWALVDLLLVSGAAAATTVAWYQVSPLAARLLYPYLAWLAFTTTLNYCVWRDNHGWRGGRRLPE

As for `CCC1C(C)=NN=C(c2ccc(OC)c(O)c2)c2cc(OC)c(OC)cc21` (racemic) [Compound 4, 1-(3-hydroxy-4-methoxyphenyl)-4-methyl-5-ethyl-7,8-dimethoxy-5H-2,3-benzodiazepine], the inhibition at 10 µM at LTB4 receptor was determined as 64%. The inhibition at 10 µM at TXA2 receptor [1] amounted to 25.9%. Moreover, in assay [2] (16 mg/kg IP daily + DSS), the “Mean colon length CM ± SEM” value worked out at 8.9 ± 0.40 CM, the “Mean weight (g) ± SEM Day 0” value is on record as 24.6 ± 0.5 g, the “% weight change ± SEM Day 7” value was “+0.5 ± 2.2%” and the “Mean weight (g) ± SEM Day 7” value turned out to be 24.8 ± 0.8 g. In assay [2] (16 mg/kg IP daily + DSS), the “% weight change ± SEM Day 8” value is given as −1.7 ± 3.0%, the “Mean weight (g) ± SEM Day 8” value is listed as 24.3 ± 1.0 g, the “% weight change ± SEM Day 9” value is recorded as −7.5 ± 4.3% and the “Mean weight (g) ± SEM Day 9” value worked out at 22.9 ± 1.4 g. In addition, the “% of normal length” value in [2] (16 mg/kg IP daily + DSS) is reported as 70.2%. In addition, the “Colon shortening inhib. %” value in assay [2] (16 mg/kg IP daily + DSS, listed as 1-(3-hydroxy-4-methoxy-phenyl)-4-methyl-5-ethyl-7,8-dimethoxy-5H-2,3-benzodiazep) is recorded as “significantly inhibited colonic shortening”. In addition, the “Colon shortening inhib. %” value in [2] (16 mg/kg IP daily + DSS, listed as 1-(3-hydroxy-4-methoxyphenyl)-4-methyl-5-ethyl-7,8-dimethoxy-5H-2,3-benzodiazepi) was 32%. For the same molecule, in [2] (32 mg/kg IP daily + DSS), the “Colon shortening inhib. %” value turned out to be 14%, the “Mean colon length CM ± SEM” value is recorded as 7.9 ± 0.08 CM, the “Mean DAIWT ± SEM” value is recorded as 2.56 ± 0.27 and the “Mean weight (g) ± SEM Day 0” value was 24.8 ± 0.2 g. Further, in [2] (32 mg/kg IP daily + DSS), the “% weight change ± SEM Day 7” value was −2.5 ± 1.7%, the “Mean weight (g) ± SEM Day 7” value was 24.1 ± 0.5 g, the “% weight change ± SEM Day 8” value is −9.1 ± 2.6% and the “Mean weight (g) ± SEM Day 8” value is given as 22.5 ± 0.7 g. Besides, in [2] (32 mg/kg IP daily + DSS), the “% weight change ± SEM Day 9” value is −15.7 ± 4.1%, the “Mean weight (g) ± SEM Day 9” value is 20.9 ± 1.0 g, the “% of normal length” value is reported as 62.3% and the “Mean DAI ± SEM” value is listed as 2.67 ± 0.36. Besides, in assay [2] (64 mg/kg IP daily + DSS), the “Colon shortening inhib. %” value turned out to be 37%, the “Mean colon length CM ± SEM” value was found to be 9.2 ± 0.33 CM, the “Mean DAIWT ± SEM” value was 2.00 ± 0.45 and the “Mean weight (g) ± SEM Day 0” value is recorded as 23.7 ± 0.2 g. Also, in [2] (64 mg/kg IP daily + DSS), the “% weight change ± SEM Day 7” value was −2.7 ± 2.8%, the “Mean weight (g) ± SEM Day 7” value was determined as 23.0 ± 0.6 g, the “% weight change ± SEM Day 8” value is −4.8 ± 4.3% and the “Mean weight (g) ± SEM Day 8” value stood at 22.5 ± 0.9 g. In assay [2] (64 mg/kg IP daily + DSS), the “% weight change ± SEM Day 9” value is recorded as −9.7 ± 4.9%, the “Mean weight (g) ± SEM Day 9” value amounted to 21.3 ± 1.1 g, the “% of normal length” value turned out to be 72.5% and the “Mean DAI ± SEM” value is given as 2.06 ± 0.48. The “weight loss as compared to the negative controls” value in assay [2] (test compound groups (64, 32, 16 mg/kg) + DSS) is listed as “no observed significant difference”.
In the case of `CCC1C(C)=NN=C(c2ccc(OC)c(OC)c2)c2cc(OC)c(O)cc21` (stereo not drawn) [Compound 1, 1-(3,4-dimethoxyphenyl)-4-methyl-5-ethyl-7-hydroxy-8-methoxy-5H-2,3-benzodiazepine], the inhibition of aggression in the assay on aggression in mice was 0%. Moreover, in the assay on muricide in rats, the inhibition of muricide was 20%. The anti-noradrenergic effects result in assay [3] is reported as “no effect”.
With `CCC1C(C)=NN=C(c2ccc(OC)c(OC)c2)c2cc(O)c(OC)cc21` (stereo not drawn) [Compound 2, 1-(3,4-dimethoxyphenyl)-4-methyl-5-ethyl-7-methoxy-8-hydroxy-5H-2,3-benzodiazepine], the inhibition at 10 µM at LTB4 receptor was 36%.
For `CCC1C(C)=NN=C(c2ccc(O)c(OC)c2)c2cc(OC)c(OC)cc21` (stereo not drawn) [Compound 3, 1-(3-methoxy-4-hydroxyphenyl)-4-methyl-5-ethyl-7,8-dimethoxy-5H-2,3-benzodiazepine], the inhibition at 10 µM on LTB4 receptor came out at 16.8%. For the same molecule, in the assay with aggression in mice, the inhibition of aggression is given as 0%. Moreover, the inhibition of muricide with muricide in rats is 0%. Further, the anti-noradrenergic effects result in [3] is given as “measurable activity”. Besides, the narcosis-potentiating activity result in the assay with narcosis in mice is “demonstrate narcosis-potentiating activity”.
In the case of `CCC1C(C)=NN=C(c2ccc(O)c(OC)c2)c2cc(OC)c(O)cc21` (stereo not drawn) [Compound 5, 1-(3-methoxy-4-hydroxyphenyl)-4-methyl-5-ethyl-7-hydroxy-8-methoxy-5H-2,3-benzodiazepine], on LTB4 receptor, the “LTB4 % inhib @ 10 μm” value was “inactive”. For the same molecule, in the assay on aggression in mice, the inhibition of aggression was 28.6%. Also, in the assay on muricide in rats, the inhibition of muricide is on record as 20%. Besides, the anti-noradrenergic effects entry in [3] was “measurable activity”.
Turning to `CCC1C(C)=NN=C(c2ccc(OC)c(O)c2)c2cc(OC)c(O)cc21` (stereo not drawn) [Compound 6, 1-(3-hydroxy-4-methoxyphenyl)-4-methyl-5-ethyl-7-hydroxy-8-methoxy-5H-2,3-benzodiazepine], the “LTB4 % inhib @ 10 μm” value on LTB4 receptor was “inactive”.
`O=C(O)c1cc(/N=N/c2ccc(S(=O)(=O)Nc3ccccn3)cc2)ccc1O` [Sulfasalazine, reference compound]: in assay [2] (300 mg/kg IP daily + DSS), the “Colon shortening inhib. %” value is recorded as 30%, the “Mean colon length CM ± SEM” value is 8.8 ± 0.29 CM, the “Mean weight (g) ± SEM Day 0” value was determined as 22.6 ± 0.2 g and the “% weight change ± SEM Day 7” value is −0.6 ± 0.5%. Moreover, in assay [2] (300 mg/kg IP daily + DSS), the “Mean weight (g) ± SEM Day 7” value is recorded as 22.4 ± 0.2 g, the “% weight change ± SEM Day 8” value is recorded as −11.4 ± 1.4%, the “Mean weight (g) ± SEM Day 8” value is 20.0 ± 0.4 g and the “% weight change ± SEM Day 9” value is on record as −17.7 ± 1.8%. Also, in assay [2] (300 mg/kg IP daily + DSS), the “Mean weight (g) ± SEM Day 9” value is 18.6 ± 0.4 g and the “% of normal length” value is given as 69.5%. Also, the “weight loss as compared to the negative controls” value in assay [2] (300 mg/kg daily + DSS) is “no observed significant difference”.
For `CCC1C(C)=NN=C(c2ccc(OC)c(OC)c2)c2cc(OC)c(OC)cc21` (stereo not drawn) [tofisopam], the “interaction with central BZ receptors” value with central BZ receptors was “does not interact”. The “binding to peripheral BZ receptors” value at peripheral BZ receptors is “binds only weakly”.
Broadly, the Ki is the equilibrium dissociation constant of an inhibitor or competing ligand from its target. With Pinane-thromboxane, at TXA2 receptor [4], the inhibition constant Ki was 149 nM.

The values are drawn from patent publication US20040152695A1, “Pharmaceutical composition of 1-(3-hydroxy-4-methoxyphenyl)-4-methyl-5-ethyl-7,8-dimethoxy-5H-2,3-benzodiazepine and uses thereof” (Vela Pharmaceuticals, Inc., priority 2002, published 2004).
